Drawing on ChEMBL document CHEMBL2424650, “Optimization of anti-proliferative activity using a screening approach with a series of bis-heterocyclic G-quadruplex ligands” (Bioorg Med Chem Lett, 2013), this text covers ΔTm and IC50 for eight compounds.

Assay [1] is described as follows: Binding affinity to duplex DNA (unknown origin) assessed as change in melting temperature at 5 uM by FRET assay.
Assay [2] in a line: Binding affinity to duplex DNA (unknown origin) assessed as change in melting temperature at 1 uM by FRET assay.
Assay [3] in a line: Binding affinity to 21-mer Hsp90A promoter quadruplex (unknown origin) assessed as change in melting temperature at 5 uM by FRET assay.
The nature of assay [4]: Binding affinity to 21-mer Hsp90A promoter quadruplex (unknown origin) assessed as change in melting temperature at 1 uM by FRET assay.
Assay [5] can be described thus: Binding affinity to c-kit2 G4-quadruplex DNA (unknown origin) assessed as change in melting temperature at 5 uM by FRET assay.
Assay [6] in a line: Binding affinity to c-kit2 G4-quadruplex DNA (unknown origin) assessed as change in melting temperature at 1 uM by FRET assay.
Assay [7] is filed under the species Homo sapiens. Nature of the assay: Binding affinity to human F21T G4-telomeric quadruplex assessed as change in melting temperature at 5 uM by FRET assay.
Assay [8] is filed under the species Homo sapiens. The assay can be described thus: Binding affinity to human F21T G4-telomeric quadruplex assessed as change in melting temperature at 1 uM by FRET assay.
Assay [9] is described as follows: Antiproliferative activity against human […] cells after 96 hrs by SRB assay. Type of assay: cell-based. Conditions: WI-38, 96 h. (The SRB assay estimates cell density from bound dye.)
For a further assay, the system named is A549. The assay can be described thus: Antiproliferative activity against human A549 cells after 96 hrs by SRB assay. Type of assay: functional, cell-based. Particulars: A549, 96 h.
Assay [10] is described as follows: Antiproliferative activity against human RCC4 cells after 96 hrs by SRB assay. Type of assay: functional, cell-based. Conditions: RCC4, 96 h.
Another assay deals with 786-0. The assay can be described thus: Antiproliferative activity against human 786-0 cells after 96 hrs by SRB assay. Type of assay: functional, cell-based. Particulars: 786-0, 96 h.
Another assay relates to MCF7. Nature of the assay: Antiproliferative activity against human MCF7 cells after 96 hrs by SRB assay. Type of assay: functional, cell-based. Conditions: MCF7, 96 h.

Each structure is given as a SMILES string.

What is called ΔTm is the shift of the melting midpoint relative to a reference. What is called IC50 is the point on the concentration scale where inhibition reaches its midpoint. A high value points to weaker potency. Regarding `CCN(CC)CCNc1cccc(-c2ncc(-c3cccc(-c4cnc(-c5cccc(NCCN(CC)CC)c5)o4)c3)o2)c1`, the ΔTm in assay [1] was 0 °C; in assay [2], 0 °C; in assay [3], 19.5 °C; in assay [4], less than 2 °C; in assay [5], 13.6 °C; in [6] it was less than 2 °C. Also, the ΔTm in the assay listed under Homo sapiens [7] is 13.3 °C; in the assay listed under Homo sapiens [8], less than 2 °C. Besides, the IC50 worked out at 2800 nM in [9]; 2500 nM in the assay on A549; 1100 nM in [10]; 1300 nM with 786-0; 3100 nM in the assay with MCF7.
Turning to `c1cc(-c2cnc(-c3cccc(OCCN4CCCC4)c3)o2)cc(-c2cnc(-c3cccc(OCCN4CCCC4)c3)o2)c1`, the ΔTm in assay [1] was 5.3 °C; in [2] it was 0 °C; in [3], 27.7 °C; in assay [4] it was 3.4 °C; in assay [5], 20.3 °C; in [6], less than 2 °C. In addition, the ΔTm was 25.9 °C in the assay filed under Homo sapiens [7] and less than 2 °C in the assay filed under Homo sapiens [8]. Further, the IC50 in assay [9] was determined as 1000 nM; with A549, 1000 nM; in assay [10], 1300 nM; in the assay with 786-0, 700 nM; with MCF7, 1200 nM.
On to `c1cc(-c2cnc(-c3cccc(CN4CCCCC4)c3)o2)cc(-c2cnc(-c3cccc(CN4CCCCC4)c3)o2)c1`, for which the ΔTm in assay [2] was 2 °C; in [4], 5 °C; in assay [6] it was less than 2 °C; in the assay listed under Homo sapiens [8] it was less than 2 °C. For the same compound, the IC50 was determined as 4400 nM in assay [9]; 1200 nM in the assay on A549; 1900 nM in assay [10]; 2300 nM in the assay on 786-0; 1400 nM with MCF7.
`CN1CCN(CCCNc2cccc(-c3ncc(-c4cccc(-c5cnc(-c6cccc(NCCCN7CCN(C)CC7)c6)o5)c4)o3)c2)CC1`: the ΔTm in assay [1] was 0 °C; in assay [2], 0 °C; in assay [3] it was 25.6 °C; in assay [4] it was less than 2 °C; in [5] it was 18.3 °C; in [6], less than 2 °C. The ΔTm in the assay listed under Homo sapiens [7] is 20.1 °C; in the assay filed under Homo sapiens [8], less than 2 °C. Besides, the IC50 in assay [9] stood at 1100 nM; with A549, 1200 nM; in assay [10] it was 1200 nM; in the assay on 786-0, 900 nM; in the assay on MCF7, 1000 nM.
As for `CN1CCN(CCCNc2cccc(-c3ncc(-c4ccc5ccc(-c6cnc(-c7cccc(NCCCN8CCN(C)CC8)c7)o6)cc5c4)o3)c2)CC1`, the ΔTm in assay [1] was 0 °C; in assay [2] it was 0 °C; in [3], less than 10 °C; in [4], 2.5 °C; in assay [5], less than 10 °C; in assay [6], less than 2 °C. Further, the ΔTm in the assay filed under Homo sapiens [7] was less than 10 °C; in the assay filed under Homo sapiens [8], less than 2 °C. The IC50 in assay [9] is 3100 nM; in the assay with A549, 1600 nM; in assay [10], 2100 nM; with 786-0, 1200 nM; with MCF7, 1900 nM.
On to `c1cc(-c2cnc(-c3cccc(NCCN4CCCC4)c3)o2)cc(-c2cnc(-c3cccc(NCCN4CCCC4)c3)o2)c1`, for which the ΔTm in [1] is 6.8 °C; in assay [2], 0 °C; in [4], less than 2 °C; in [5], 17 °C; in assay [6] it was less than 2 °C; in the assay filed under Homo sapiens [7] it was 24.7 °C. For the same compound, in the assay listed under Homo sapiens [8], the ΔTm is less than 2 °C. Also, the IC50 in assay [9] turned out to be 1000 nM; with A549, 600 nM; in [10] it was 1100 nM; with 786-0, 1100 nM; with MCF7, 2100 nM.
For `CN1CCN(CCCNc2cccc(-n3cc(-c4ccc5ccc(-c6cn(-c7cccc(NCCCN8CCN(C)CC8)c7)nn6)cc5c4)nn3)c2)CC1`, the ΔTm in assay [1] is 0 °C; in assay [2] it was 0 °C; in [3], less than 10 °C; in assay [4], 5.7 °C; in assay [5] it was less than 10 °C; in [6], 2.4 °C. Moreover, the ΔTm in the assay listed under Homo sapiens [7] is less than 10 °C; in the assay filed under Homo sapiens [8], 2.9 °C. In addition, the IC50 in assay [9] is 15300 nM; in the assay with A549 it was greater than 25000 nM; in [10] it was 8400 nM; with 786-0, 8700 nM; in the assay with MCF7 it was greater than 25000 nM.
For the compound `CN1CCN(CCCNc2ccc(-n3cc(-c4ccc5ccc(-c6cn(-c7ccc(NCCCN8CCN(C)CC8)cc7)nn6)cc5c4)nn3)cc2)CC1`, the ΔTm in [1] was 0 °C; in assay [2], 0 °C; in [3] it was less than 10 °C; in assay [4] it was less than 2 °C; in assay [5], less than 10 °C; in assay [6], less than 2 °C. Also, the ΔTm in the assay filed under Homo sapiens [7] was less than 10 °C; in the assay listed under Homo sapiens [8], less than 2 °C. Moreover, the IC50 (in assay [9]; in the assay with A549; in assay [10]; in the assay with 786-0; with MCF7) was greater than 25000 nM each time.
